# Results from EPA's ToxRefDB 2.
# Assays:
# rat [1] = conditions: Prenatal developmental toxicity study, sprague dawley, Oral, Gavage/Intubation, dose end: 15 GD
# rat [2] = conditions: Subchronic oral toxicity in rodents, fischer, Feed, dose end: 13 week, group: systemic, systemic / clinical chemistry / thyroxine (t4) / thyroxine (t4), total + systemic / in life observation / body weight / body weight + …
# rabbit [3] = conditions: Prenatal developmental toxicity study; new zealand white; Inhalation; Whole-Body; dose end: 18 GD; group: maternal; systemic / in life observation / body weight / body weight gain
# rat [4] = conditions: Prenatal developmental toxicity study; fischer; Inhalation; Whole-Body; dose end: 15 GD; group: maternal; systemic / in life observation / body weight / body weight + systemic / in life observation / body weight / body weight gain + systemic / in…
# rat [5] = conditions: Subchronic oral toxicity in rodents, fischer, Inhalation, Whole-Body, dose end: 13 week, group: systemic
# rabbit [6] = conditions: Prenatal developmental toxicity study, new zealand white, Oral, Gavage/Intubation, dose end: 19 GD
# rat [7] = conditions: Subchronic inhalation toxicity, sprague dawley, Nose-Only, dose end: 13 week, group: systemic
# rat [8] = conditions: Multigenerational reproductive toxicity study, wistar, Oral, Feed, dose end: 2 generation
# rat [9] = conditions: Carcinogenicity, fischer, Oral, Feed, dose end: 107 week, group: systemic
# mouse [10] = conditions: Combined chronic toxicity/carcinogenicity, cd1, Oral, Feed, dose end: 78 week, group: systemic
# dog = conditions: Chronic toxicity; beagle; Oral; Feed; dose end: 12 month; group: systemic; systemic / clinical chemistry / alkaline phosphatase (alp/alk) / alkaline phosphatase (alp/alk) + systemic / in life observation / body …
# rat [11] = conditions: Combined chronic toxicity/carcinogenicity, sprague dawley, Oral, [Not Specified], dose end: 24 month, group: systemic
# mouse [12] = conditions: Carcinogenicity, b6c3f1, Oral, Feed, dose end: 112 week, group: systemic
# rabbit [13] = conditions: Prenatal developmental toxicity study, new zealand white, Oral, Gavage/Intubation, dose end: 19 GD; remark: listed apart in the source
# rat [14] = conditions: Sub-acute repeat dose toxicity, other, Inhalation, Nose-Only, dose end: 14 day, group: systemic
# rat [15] = conditions: Prenatal developmental toxicity study, other, Inhalation, Nose-Only, dose end: 16 GD
# mouse [16] = conditions: Prenatal developmental toxicity study, cd1, Oral, Gavage/Intubation, dose end: 15 GD
# mouse [17] = conditions: Multigenerational reproductive toxicity study, cd1, Oral, Feed, dose end: 2 generation, group: offspring
# rat [18] = conditions: Subchronic oral toxicity in rodents, sprague dawley, Feed, dose end: 13 week, group: systemic, systemic / clinical chemistry / calcium / calcium + systemic / pathology microscopic / liver / accentuated lobular pattern + systemic / …
# rat [19] = conditions: Subchronic dermal toxicity, sprague dawley, Topical, dose end: 90 day, group: systemic, systemic / in life observation / clinical signs / erythema + systemic / in life observation / clinical signs / scabbing + systemic / …
# rat [20] = conditions: Prenatal developmental toxicity study, sprague dawley, Oral, Gavage/Intubation, dose end: 15 GD; remark: listed apart in the source
# [21] = group: developmental, developmental / developmental malformation / bone / full supernumerary + developmental / developmental malformation / bone / incomplete …
# [22] = group: maternal, systemic / hematology / erythrocyte (rbc) count differential / erythrocyte (rbc) + systemic / hematology / reticulocyte / reticulocyte + …
# [23] = systemic / clinical chemistry / alanine aminotransferase (alt/sgpt) / alanine aminotransferase (alt/sgpt) + systemic / clinical chemistry / …
# [24] = systemic / in life observation / clinical signs / urogenital staining + systemic / organ weight / kidney / relative to body weight
# [25] = group: developmental, systemic / in life observation / body weight / fetal weight
# [26] = group: maternal, reproductive / reproductive performance / aborted / aborted + systemic / in life observation / body weight / body weight + systemic / in …
# [27] = systemic / in life observation / body weight / body weight + systemic / in life observation / clinical signs / [other] + systemic / in life …
# [28] = group: offspring, systemic / in life observation / body weight / offspring (pup) weight + systemic / organ weight / spleen / absolute + systemic / organ …
# [29] = group: parental, systemic / pathology microscopic / stomach / hyperkeratosis + systemic / pathology microscopic / stomach / hyperplasia + systemic / …
# [30] = systemic / in life observation / body weight / body weight
# [31] = systemic / organ weight / liver / relative to body weight
# [32] = systemic / clinical chemistry / cholesterol / cholesterol + systemic / organ weight / liver / absolute + systemic / organ weight / liver / …
# [33] = systemic / in life observation / body weight / body weight + systemic / in life observation / clinical signs / alopecia
# [34] = group: developmental, developmental / developmental malformation / bone / fused + developmental / developmental malformation / kidney / hydronephrosis + …
# [35] = group: maternal, reproductive / reproductive performance / resorptions / resorptions + systemic / in life observation / body weight / body weight gain + …
# [36] = systemic / hematology / leukocyte (wbc) count differential / leukocyte (wbc) + systemic / in life observation / body weight / body weight + …
# [37] = group: developmental, developmental / developmental malformation / bone / incomplete ossification + developmental / developmental malformation / bone / short …
# [38] = group: maternal, reproductive / reproductive performance / resorptions / resorptions + systemic / in life observation / body weight / body weight + systemic…
# [39] = group: developmental, developmental / developmental malformation / bone / [other] + developmental / developmental malformation / bone / absent + developmental / …
# [40] = group: maternal, reproductive / reproductive performance / postimplantation loss / postimplantation loss + reproductive / reproductive performance / …
# [41] = systemic / organ weight / kidney / relative to body weight + systemic / organ weight / liver / relative to body weight + systemic / organ …
# [42] = group: developmental, developmental / developmental malformation / kidney / dilatation + developmental / developmental malformation / ureter / distended
# [43] = group: maternal, systemic / in life observation / body weight / body weight
structure (smiles),measurement,setting,value
"CCCCOCCOC(=O)COc1ccc(Cl)cc1Cl [2,4-D-Butotyl]",LEL,rat [1]; [21],185 mg/kg/day
same,LOAEL,rat [1]; [21],185 mg/kg/day
same,NEL,rat [1]; [21],75 mg/kg/day
same,NOAEL,rat [1]; [21],75 mg/kg/day
same,LEL,rat [1]; [22],185 mg/kg/day
same,LOAEL,rat [1]; [22],185 mg/kg/day
same,NEL,rat [1]; [22],75 mg/kg/day
same,NOAEL,rat [1]; [22],75 mg/kg/day
same,LEL,rat [2],145 mg/kg/day
same,LOAEL,rat [2],145 mg/kg/day
same,NEL,rat [2],22 mg/kg/day
same,NOAEL,rat [2],22 mg/kg/day
CCCCCCOCCO [2-(Hexyloxy)ethanol],LEL,rabbit [3],79.2 ppm
same,LOAEL,rabbit [3],> 79.2 ppm
same,NEL,rabbit [3],41.1 ppm
same,NOAEL,rabbit [3],≥ 79.2 ppm
same,LEL,rat [4],79.2 ppm
same,LOAEL,rat [4],> 79.2 ppm
same,NEL,rat [4],41.1 ppm
same,NOAEL,rat [4],≥ 79.2 ppm
same,LOAEL,rat [5]; [23],> 71 ppm
same,NOAEL,rat [5]; [23],≥ 71 ppm
same,LEL,rat [5]; [24],20 ppm
same,NEL,rat [5]; [24],< 20 ppm
CCCCCCCCn1sccc1=O [Octhilinone],LEL,rabbit [6]; [25],80 mg/kg/day
same,LOAEL,rabbit [6]; [25],80 mg/kg/day
same,NEL,rabbit [6]; [25],20 mg/kg/day
same,NOAEL,rabbit [6]; [25],20 mg/kg/day
same,LEL,rabbit [6]; [26],80 mg/kg/day
same,LOAEL,rabbit [6]; [26],80 mg/kg/day
same,NEL,rabbit [6]; [26],20 mg/kg/day
same,NOAEL,rabbit [6]; [26],20 mg/kg/day
same,LEL,rat [7]; [27],0.73 ppm
same,LOAEL,rat [7]; [27],0.73 ppm
same,NOAEL,rat [7]; [27],0.0733 ppm
same,NEL,rat [7]; systemic / in life observation / clinical signs / respiration (rales) + systemic / pathology microscopic / nose / [other],0.0733 ppm
same,LOAEL,rat [8]; [28],111 mg/kg/day
same,NEL,rat [8]; [28],14 mg/kg/day
same,NOAEL,rat [8]; [28],45 mg/kg/day
same,LEL,"rat [8]; group: offspring, systemic / organ weight / spleen / relative to body weight",45 mg/kg/day
same,LOAEL,"rat [8]; group: parental, systemic / pathology microscopic / stomach / hyperkeratosis + systemic / pathology microscopic / stomach / hyperplasia",96 mg/kg/day
same,LEL,rat [8]; [29],96 mg/kg/day
same,NEL,rat [8]; [29],43 mg/kg/day
same,NOAEL,rat [8]; [29],43 mg/kg/day
CCCCOCCOCCOCc1cc2c(cc1CCC)OCO2 [Piperonyl butoxide],LEL,rat [9]; [30],250 mg/kg/day
same,LOAEL,rat [9]; [30],500 mg/kg/day
same,NEL,rat [9]; [30],< 250 mg/kg/day
same,NOAEL,rat [9]; systemic / in life observation / body weight / body weight + systemic / pathology gross / full gross necropsy / lymphoma nos,250 mg/kg/day
same,LEL,mouse [10]; [31],30 mg/kg/day
same,NEL,mouse [10]; [31],< 30 mg/kg/day
same,NOAEL,mouse [10]; systemic / organ weight / liver / relative to body weight + systemic / pathology microscopic / liver / adenoma,30 mg/kg/day
same,LOAEL,mouse [10]; systemic / organ weight / liver / relative to body weight + systemic / pathology microscopic / liver / hypertrophy,100 mg/kg/day
same,LEL,dog,15.5 mg/kg/day
same,LOAEL,dog,15.5 mg/kg/day
same,NEL,dog,2.9 mg/kg/day
same,NOAEL,dog,2.9 mg/kg/day
same,LOAEL,rat [11]; [32],100 mg/kg/day
same,NEL,rat [11]; [32],15 mg/kg/day
same,NOAEL,rat [11]; [32],30 mg/kg/day
same,LEL,rat [11]; systemic / organ weight / liver / absolute + systemic / organ weight / liver / relative to brain weight + systemic / pathology gross / …,30 mg/kg/day
same,LOAEL,mouse [12]; [30],155 mg/kg/day
same,NOAEL,mouse [12]; [30],< 155 mg/kg/day
same,LEL,mouse [12]; [33],155 mg/kg/day
same,NEL,mouse [12]; [33],< 155 mg/kg/day
COCCOCCOC [Bis(2-methoxyethyl) ether],LOAEL,rabbit [13]; [34],> 175 mg/kg/day
same,NEL,rabbit [13]; [34],25 mg/kg/day
same,NOAEL,rabbit [13]; [34],≥ 175 mg/kg/day
same,LEL,"rabbit [13]; group: developmental, developmental / developmental malformation / limb / [other]",50 mg/kg/day
same,LOAEL,rabbit [13]; [35],> 175 mg/kg/day
same,NEL,rabbit [13]; [35],25 mg/kg/day
same,NOAEL,rabbit [13]; [35],≥ 175 mg/kg/day
same,LEL,"rabbit [13]; group: maternal, systemic / in life observation / body weight / body weight gain",50 mg/kg/day
same,LOAEL,rat [14]; [23],> 1000 ppm
same,NOAEL,rat [14]; [23],≥ 1000 ppm
same,LEL,rat [14]; [36],100 ppm
same,NEL,rat [14]; [36],< 100 ppm
same,LEL,rat [15]; [37],25 ppm
same,LOAEL,rat [15]; [37],> 400 ppm
same,NEL,rat [15]; [37],< 25 ppm
same,NOAEL,rat [15]; [37],≥ 400 ppm
same,LOAEL,rat [15]; [38],> 400 ppm
same,NEL,rat [15]; [38],25 ppm
same,NOAEL,rat [15]; [38],≥ 400 ppm
same,LEL,"rat [15]; group: maternal, systemic / in life observation / food consumption / food consumption + systemic / organ weight / liver / absolute + systemic / organ weight…",100 ppm
same,LOAEL,mouse [16]; [39],> 500 mg/kg/day
same,NEL,mouse [16]; [39],62.5 mg/kg/day
same,NOAEL,mouse [16]; [39],≥ 500 mg/kg/day
same,LEL,mouse [16]; [25],125 mg/kg/day
same,LOAEL,mouse [16]; [40],> 500 mg/kg/day
same,NEL,mouse [16]; [40],125 mg/kg/day
same,NOAEL,mouse [16]; [40],≥ 500 mg/kg/day
same,LEL,"mouse [16]; group: maternal, reproductive / reproductive performance / postimplantation loss / postimplantation loss + systemic / in life observation / body weight / …",250 mg/kg/day
CCCCCCCCOC(=O)c1ccccc1C(=O)OCCCCCCCC [Dioctyl phthalate],NEL,mouse [17]; systemic / organ weight / kidney / relative to body weight + systemic / organ weight / liver / relative to body weight,3600 mg/kg/day
same,LEL,mouse [17]; [41],7500 mg/kg/day
same,LOAEL,mouse [17]; [41],> 7500 mg/kg/day
same,NOAEL,mouse [17]; [41],≥ 7500 mg/kg/day
same,LEL,rat [18],350 mg/kg/day
same,LOAEL,rat [18],> 350 mg/kg/day
same,NEL,rat [18],36.8 mg/kg/day
same,NOAEL,rat [18],≥ 350 mg/kg/day
"CCN1CN(CC)CN(CC)C1 [1,3,5-Triethylhexahydro-s-triazine]",LEL,rat [19],10 mg/kg/day
same,LOAEL,rat [19],10 mg/kg/day
same,NEL,rat [19],< 10 mg/kg/day
same,NOAEL,rat [19],< 10 mg/kg/day
same,LEL,rat [20]; [42],150 mg/kg/day
same,LOAEL,rat [20]; [42],150 mg/kg/day
same,NEL,rat [20]; [42],75 mg/kg/day
same,NOAEL,rat [20]; [42],75 mg/kg/day
same,LEL,rat [20]; [43],150 mg/kg/day
same,LOAEL,rat [20]; [43],150 mg/kg/day
same,NEL,rat [20]; [43],75 mg/kg/day
same,NOAEL,rat [20]; [43],75 mg/kg/day
